Experiment: solvent given as SMILES
Conditions: in CCOC(C)=O

| SMILES | emission maximum |
| --- | --- |
| CCC1=C(C)C2=Cc3cccn3[B-](F)(F)[N+]2=C1C | 516.5 nm |

Same assay, conditions: in CN(C)C=O

| emission maximum | SMILES |
| --- | --- |
| 423 nm | CCc1ccc(/C=N/c2cc(C(C)C)c(O)cc2C)cc1 |
| 604 nm | CC(C)(C)NS(=O)(=O)c1ccc2c(c1)C(=O)/C(=C1\Sc3ccc(S(=O)(=O)NC(C)(C)C)cc3C1=O)S2 |

| SMILES | emission maximum |
| --- | --- |
| COc1cc2c(cc1/C=C/C(=C(C#N)C#N)c1ccccc1)c1ccccc1n2C | 573 nm |

Same assay, conditions: in CO

| SMILES | emission maximum |
| --- | --- |
| CCc1ccc(/C=N/c2cc(C(C)C)c(O)cc2C)cc1 | 428 nm |
| COC1=[N+]2C(=C(c3ccc(C)cc3)c3ccc(OC)n3[B-]2(F)F)C=C1 | 523 nm |
| O=S(=O)([O-])CCCCN1C=C/C(=C/C=C/C=C/c2cc[n+](CCCCS(=O)(=O)[O-])c3ccccc23)c2ccccc21 | 830 nm |
| Cc1ccc(C2=C3C=CC(C#Cc4ccccc4)=[N+]3[B-](F)(F)n3c(Cl)ccc32)cc1 | 569 nm |
| CCOC(=O)COc1ccc(/C=C/C2=C3c4ccccc4C(c4ccc[nH]4)=[N+]3[B-](F)(F)n3ccc(C)c32)cc1 | 624 nm |
| C[N+]1=C(/C=C/C2=C3Oc4c(cc5c6c4CCCN6CCC5)C(c4ccccc4C(=O)O)=C3CCC2)C(C)(C)c2c1ccc1ccccc21 | 768 nm |
| COc1cc2c(cc1/C=C/C(=C(C#N)C#N)c1ccccc1)c1ccccc1n2C | 575 nm |
| N#Cc1cccc2[nH]ccc12 | 390 nm |
| CCC1=C(C)C2=Cc3cccn3[B-](F)(F)[N+]2=C1C | 516.5 nm |

Same assay, conditions: in CS(C)=O

| emission maximum | SMILES |
| --- | --- |
| 431 nm | CCc1ccc(/C=N/c2cc(C(C)C)c(O)cc2C)cc1 |
| 720 nm | C[n+]1ccc(/C=C/c2ccc(N(c3ccccc3)c3ccc(/C=C/c4cc[n+](C)cn4)cc3)cc2)nc1 |
| 618 nm | CC(C)(C)NS(=O)(=O)c1ccc2c(c1)C(=O)/C(=C1\Sc3ccc(S(=O)(=O)NC(C)(C)C)cc3C1=O)S2 |
| 392 nm | N#Cc1cccc2[nH]ccc12 |

| SMILES | emission maximum |
| --- | --- |
| COc1cc2c(cc1/C=C/C(=C(C#N)C#N)c1ccccc1)c1ccccc1n2C | 581 nm |
| CC(C)CCCCN1CCc2c1ccc1c3c(ccc21)CCCC3=O | 643 nm |

Same assay, conditions: in Cc1ccccc1

| SMILES | emission maximum |
| --- | --- |
| CC(C)c1cc(C(C)C)c(B2c3cc(N4c5ccccc5Oc5ccccc54)ccc3N(c3ccccc3)c3ccc(N4c5ccccc5Oc5ccccc54)cc32)c(C(C)C)c1 | 510.2 nm |
| COC1=[N+]2C(=C(c3ccc(C)cc3)c3ccc(OC)n3[B-]2(F)F)C=C1 | 530 nm |
| c1ccc2c(c1)ccc1ccccc12 | 350 nm |
| Cc1ccc(C2=C3C=CC(C#Cc4ccccc4)=[N+]3[B-](F)(F)n3c(Cl)ccc32)cc1 | 577 nm |
| CCOC(=O)COc1ccc(/C=C/C2=C3c4ccccc4C(c4ccc[nH]4)=[N+]3[B-](F)(F)n3ccc(C)c32)cc1 | 637 nm |
| CCCN1C(=O)c2c3c(c4c(c2C1=O)CCc1cc(-c2ccc(N(C)C)cc2)c(OC)cc1-4)-c1cc(OC)c(-c2ccc(N(C)C)cc2)cc1CC3 | 548 nm |
| Cc1cc(C)c(B(c2c(C)cc(C)cc2C)N2c3ccccc3C(c3ccccc3)(c3ccccc3)c3ccccc32)c(C)c1 | 537 nm |
| CC1(C)c2ccccc2N(c2ccc(-c3ccc4c(c3)c3cc(-c5ccc(N6c7ccccc7C(C)(C)c7ccccc76)cc5)ccc3c3nc(C#N)c(C#N)nc43)cc2)c2ccccc21 | 612 nm |
| COc1cc2c(cc1/C=C/C(=C(C#N)C#N)c1ccccc1)c1ccccc1n2C | 566 nm |
| Cc1cc(C)c(B(c2ccc(C#Cc3cc4ccc5cc(C#Cc6ccc(B(c7c(C)cc(C)cc7C)c7c(C)cc(C)cc7C)cc6)cc6ccc(c3)c4c56)cc2)c2c(C)cc(C)cc2C)c(C)c1 | 426 nm |
| CC(C)CCCCN1CCc2c1ccc1c3c(ccc21)CCCC3=O | 554 nm |
| c1ccc2nc(-n3c4ccccc4c4ccccc43)c(-n3c4ccccc4c4ccccc43)nc2c1 | 503 nm |
| CCCCCCc1ccc2c3c(ccc2c1)O[B-](F)(F)[N+](c1ccc([N+]2=Cc4c(ccc5cc(CCCCCC)ccc45)O[B-]2(F)F)cc1)=C3 | 508 nm |
| C=CC1CN2CCC1CC2[C@@H](OCc1ccccc1)c1ccnc2ccc(O)cc12 (some centres not stated) | 355 nm |

Same assay, conditions: in ClC(Cl)(Cl)Cl

| SMILES | emission maximum |
| --- | --- |
| F[B-]1(F)OC(c2ccc3ccccc3c2)=CC(c2ccc3ccccc3c2)=[O+]1 | 428 nm |

Same assay, conditions: in ClC(Cl)Cl

| SMILES | emission maximum |
| --- | --- |
| CCc1ccc(/C=N/c2cc(C(C)C)c(O)cc2C)cc1 | 415 nm |
| CC1=CC(C)=[N+]2C1=C(C1=C3C(C)=CC(C)=[N+]3[B-](F)(F)n3c(C)cc(C)c31)c1c(C)cc(C)n1[B-]2(F)F | 588 nm |
| COC1=[N+]2C(=C(c3ccc(C)cc3)c3ccc(OC)n3[B-]2(F)F)C=C1 | 529 nm |
| Cc1ccc(C2=C3C=CC(C#Cc4ccccc4)=[N+]3[B-](F)(F)n3c(Cl)ccc32)cc1 | 577 nm |
| COc1cc2c(cc1/C=C/C(=C(C#N)C#N)c1ccccc1)c1ccccc1n2C | 554 nm |

More lines, now with the values ahead:

| emission maximum | SMILES |
| --- | --- |
| 613 nm | COc1ccc(-c2oc3cccc4c5c(-c6ccc(OC)c(OC)c6)/c(=N/S(=O)(=O)C(F)(F)F)oc6cccc(c2c34)c65)cc1OC |
| 775 nm | C[N+]1=C(/C=C/C2=C3Oc4c(cc5c6c4CCCN6CCC5)C(c4ccccc4C(=O)O)=C3CCC2)C(C)(C)c2c1ccc1ccccc21 |
| 505 nm | COc1ccc(-c2oc3cccc4c5c(-c6ccc(OC)cc6)c(=N)oc6cccc(c2c34)c65)cc1 |
| 387 nm | C(#Cc1ccc(C#Cc2ccc(C#Cc3ccccc3)cc2)cc1)c1ccccc1 |
| 419 nm | O=c1oc2ccccc2cc1-c1cccc(-c2cc3ccccc3oc2=O)c1 |

Same assay, conditions: in ClCCl

| SMILES | emission maximum |
| --- | --- |
| CCc1ccc(/C=N/c2cc(C(C)C)c(O)cc2C)cc1 | 420 nm |
| CC(C)c1cc(C(C)C)c(B2c3cc(N4c5ccccc5Oc5ccccc54)ccc3N(c3ccccc3)c3ccc(N4c5ccccc5Oc5ccccc54)cc32)c(C(C)C)c1 | 546.26 nm |
| CCOC(=O)COc1ccc(/C=C/C2=C3c4ccccc4C(c4ccc[nH]4)=[N+]3[B-](F)(F)n3ccc(C)c32)cc1 | 631 nm |
| CCCN1C(=O)c2c3c(c4c(c2C1=O)CCc1cc(-c2ccc(N(C)C)cc2)c(OC)cc1-4)-c1cc(OC)c(-c2ccc(N(C)C)cc2)cc1CC3 | 613 nm |
| Cc1cc(C)c(B(c2c(C)cc(C)cc2C)N2c3ccccc3C(c3ccccc3)(c3ccccc3)c3ccccc32)c(C)c1 | 558 nm |
| COc1cc2c(cc1/C=C/C(=C(C#N)C#N)c1ccccc1)c1ccccc1n2C | 560 nm |
| CC1(C)CC(/C=C/c2ccc(-n3cccn3)cc2)=CC(=C(C#N)C#N)C1 | 528 nm |
| CC(C)CCCCN1CCc2c1ccc1c3c(ccc21)CCCC3=O | 595 nm |
| CCCCCCc1ccc2c3c(ccc2c1)O[B-](F)(F)[N+](c1ccc([N+]2=Cc4c(ccc5cc(CCCCCC)ccc45)O[B-]2(F)F)cc1)=C3 | 507 nm |
| C=CC1CN2CCC1CC2[C@@H](OCc1ccccc1)c1ccnc2ccc(O)cc12 (some centres not stated) | 363 nm |

Other lines, results leading:

| emission maximum | SMILES |
| --- | --- |
| 554 nm | CCCCN(CCCC)c1ccc2c#cc3cc4c#cc5ccc(C(F)(F)F)cc5c#cc#cc5cc(C(F)(F)F)ccc5c#cc4cc3c#cc3ccc(N(CCCC)CCCC)cc3c#cc#cc2c1 |
| 536 nm | CN(C)c1cc(-c2ccc(C#Cc3ccncc3)cc2)cc2ccccc12 |
| 552 nm | CCCCN(CCCC)c1ccc(C#Cc2cc(C#Cc3ccc(N(CCCC)CCCC)cc3)c(C#Cc3cc(C(F)(F)F)cc(C(F)(F)F)c3)cc2C#Cc2cc(C(F)(F)F)cc(C(F)(F)F)c2)cc1 |
| 427 nm | O=Cc1ccc(C2=Cc3ccccc3P2(=O)c2ccccc2)cc1 (configuration not stated) |
| 557 nm | COC(=O)c1ccc(C2=C(/C=C/c3ccc(OC)cc3)O[B-](F)(F)[O+]=C2/C=C/c2ccc(OC)cc2)cc1 |
| 470 nm | CN(C)c1cc(-c2ccc(C#Cc3ccccc3)cc2)cc2ccccc12 |
| 352 nm | CCCCCCn1c2c(c3ccccc31)-c1c(c3ccccc3n1CCCCCC)-c1c(c3ccccc3n1CCCCCC)-c1c-2c2ccccc2n1CCCCCC |
| 554 nm | CC1=C(c2ccccc2)Oc2cc3nc4ccccc4nc3c3cccc1c23 |
| 428 nm | O=P1(c2ccccc2)C(c2ccccc2)=Cc2cc3ccccc3cc21 (configuration not stated) |
| 365 nm | CN(C)c1ccc(-c2cc(-c3ccccc3)nn2C)cc1 |

Same assay, conditions: in Clc1ccccc1

| SMILES | emission maximum |
| --- | --- |
| CC(C)CCCCN1CCc2c1ccc1c3c(ccc21)CCCC3=O | 573 nm |

Same assay, conditions: in O

| emission maximum | SMILES |
| --- | --- |
| 444 nm | CCc1ccc(/C=N/c2cc(C(C)C)c(O)cc2C)cc1 |
| 405 nm | N#Cc1cccc2[nH]ccc12 |
| 572 nm | CC1(C)C2=C3C=C4C5=[N+](CCC4OC3CCN2c2ccc(CC(=O)NCCCCCCO)cc21)c1ccc(S(=O)(=O)[O-])cc1C5(C)C (configuration not stated) |

Same assay, conditions: in O=P(c1ccccc1)(c1ccccc1)c1cccc(-c2cc(-n3c4ccccc4c4ccccc43)cc(-n3c4ccccc4c4ccccc43)c2)n1

| SMILES | emission maximum |
| --- | --- |
| CC1(C)c2ccccc2N(c2ccc(-c3ccc4c(c3)c3cc(-c5ccc(N6c7ccccc7C(C)(C)c7ccccc76)cc5)ccc3c3nc(C#N)c(C#N)nc43)cc2)c2ccccc21 | 594 nm |

Same assay, conditions: in OCC(F)(F)F

| SMILES | emission maximum |
| --- | --- |
| N#Cc1cccc2[nH]ccc12 | 394 nm |
| CCC1=C(C)C2=Cc3cccn3[B-](F)(F)[N+]2=C1C | 515.5 nm |

Same assay, conditions: in OCC(O)CO

| emission maximum | SMILES |
| --- | --- |
| 685 nm | C[n+]1ccc(/C=C/c2ccc(N(c3ccccc3)c3ccc(/C=C/c4cc[n+](C)cn4)cc3)cc2)nc1 |

Same assay, conditions: in OCCO

| emission maximum | SMILES |
| --- | --- |
| 429 nm | CCc1ccc(/C=N/c2cc(C(C)C)c(O)cc2C)cc1 |

Same assay, conditions: in c1cc(-c2cccc(-n3c4ccccc4c4ccccc43)c2)cc(-n2c3ccccc3c3ccccc32)c1

| SMILES | emission maximum |
| --- | --- |
| CC(C)c1cc(C(C)C)c(B2c3cc(N4c5ccccc5Oc5ccccc54)ccc3N(c3ccccc3)c3ccc(N4c5ccccc5Oc5ccccc54)cc32)c(C(C)C)c1 | 512 nm |

Same assay, conditions: in c1ccccc1

| emission maximum | SMILES |
| --- | --- |
| 504 nm | CCCCN(CCCC)c1ccc2c#cc3cc4c#cc5ccc(C(F)(F)F)cc5c#cc#cc5cc(C(F)(F)F)ccc5c#cc4cc3c#cc3ccc(N(CCCC)CCCC)cc3c#cc#cc2c1 |
| 514 nm | CCCCN(CCCC)c1ccc(C#Cc2cc(C#Cc3ccc(N(CCCC)CCCC)cc3)c(C#Cc3cc(C(F)(F)F)cc(C(F)(F)F)c3)cc2C#Cc2cc(C(F)(F)F)cc(C(F)(F)F)c2)cc1 |
| 511 nm | CC1(C)CC(/C=C/c2ccc(-n3cccn3)cc2)=CC(=C(C#N)C#N)C1 |

Source: the Deep4Chem optical property database
